Results as given in article PMC5367682, “Fragment library screening identifies hits that bind to the non-catalytic surface of Pseudomonas aeruginosa DsbA1” (PLoS ONE, 2017).

These molecules were tested against T1, PaDsbA1 (Pseudomonas aeruginosa, UniProt P0C2B2) (assay: […]-HSQC NMR titration, CSP fitted to one-site model).
T1 construct: gene dsbA; N-terminal His6 tag cut with TEV; E. coli BL21(DE3) Gold; 15N-labelled for NMR, oxidized; NMR structure residues 3-192
Format: binding

T1 sequence (P0C2B2 22-211): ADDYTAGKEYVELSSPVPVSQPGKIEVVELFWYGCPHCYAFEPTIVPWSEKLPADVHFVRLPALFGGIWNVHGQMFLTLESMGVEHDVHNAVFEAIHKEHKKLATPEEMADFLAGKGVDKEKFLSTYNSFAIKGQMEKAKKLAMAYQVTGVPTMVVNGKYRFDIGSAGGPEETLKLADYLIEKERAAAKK

`Nc1cccc(C(=O)Nc2ccccc2Cl)c1` [compound 8, Fragment 8] and `Nc1ccc(-c2nc3ccccc3[nH]2)cc1` [compound 4, Fragment 4] are within error of each other in Kd: 4.4 ± 5 mM for the first, 2.5 ± 0.4 mM for the second.

First: COc1ccc(-c2nc(N)sc2C)cc1 [compound 6, Fragment 6]
Second: Oc1nc2ccccc2s1 [compound 3, Fragment 3]
The Kd of the first is 1.9-fold higher: 3.9 ± 0.2 mM for the first, 2.1 ± 0.3 mM for the second.

First: Cc1cc(C(=O)Nc2cccc(O)c2)c(C)o1 [compound 2, Fragment 2]
Second: CNCc1ccc(-c2cccc(Cl)c2)o1 [compound 7, Fragment 7]
The Kd of the first is 2.7-fold lower: 1.6 ± 0.2 mM for the first, 4.3 ± 1 mM for the second. The first binds more tightly here.

Going from `Cc1ccccc1CSc1nncn1N` [compound 1, Fragment 1] to `NNC(=O)c1cc(C2CC2)n[nH]1` [compound 5, Fragment 5], the Kd rises from 0.9 mM to 2.7 ± 0.7 mM (3-fold).

These molecules were tested against T2, EcDsbA (Escherichia coli, UniProt P0AEG4) (assay: […]-HSQC NMR after STD NMR).
T2 construct: gene dsbA; 15N-labelled for HSQC
Format: binding

T2 sequence (P0AEG4 20-208): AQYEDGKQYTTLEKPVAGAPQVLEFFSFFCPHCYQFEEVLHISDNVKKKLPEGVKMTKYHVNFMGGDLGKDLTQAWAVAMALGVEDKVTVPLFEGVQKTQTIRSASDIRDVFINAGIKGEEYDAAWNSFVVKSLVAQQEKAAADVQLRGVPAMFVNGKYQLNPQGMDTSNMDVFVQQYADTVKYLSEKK

For `COc1ccc(-c2nc(N)sc2C)cc1` [compound 6, Fragment 6], the Kd was greater than 5 mM.
